Measured values: patent publication US9388147B2 (Receptos, Inc., priority 2009, dated 2016)

The molecules below were run against S1P1/EDG1 (Homo sapiens, UniProt P21453) (assay: S1P1 CRE-bla CHOK1 reporter assay, inhibition of Forskolin induced cAMP). Settings: agonist activity range, S1P1 CRE-bla CHOK1, 2 μM Forskolin; read-out: S1P1 ACTIVITY.
Chain of S1P1/EDG1 (P21453 whole entry): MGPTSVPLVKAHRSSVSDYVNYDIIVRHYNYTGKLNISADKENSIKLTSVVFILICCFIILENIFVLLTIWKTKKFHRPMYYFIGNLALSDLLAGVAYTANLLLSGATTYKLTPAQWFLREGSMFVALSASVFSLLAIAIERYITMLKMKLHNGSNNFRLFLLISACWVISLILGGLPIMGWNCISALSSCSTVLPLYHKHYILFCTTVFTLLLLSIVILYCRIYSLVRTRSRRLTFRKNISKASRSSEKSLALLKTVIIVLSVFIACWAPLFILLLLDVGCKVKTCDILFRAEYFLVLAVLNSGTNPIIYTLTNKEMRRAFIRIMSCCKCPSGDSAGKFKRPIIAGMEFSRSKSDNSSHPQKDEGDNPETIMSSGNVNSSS
Assay type: cell-based
Summary of the method: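 Read-out is a FRET β-lactamase substrate (2 h, room temperature) after 4 h, 37 °C compound treatment under 2 μM Forskolin in stable S1P1-transfected CRE-bla CHO-K1 cells. Ten-point curves; non-linear regression gives EC50 for inhibition of Forskolin-stimulated cAMP.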
With `CC(C)Oc1ccc(-c2nc(-c3cccc4c3CC[C@@H]4NC(=O)N3CCC(O)CC3)no2)cc1C#N` [Compound 241] the EC50 was 0.05 to 0.5 nM. `CC(C)Oc1ccc(-c2nc(-c3cccc4c3CC[C@H]4NC(=O)N3CC[C@@H](N(C)C)C3)no2)cc1C#N` [Compound 242] showed an EC50 of 0.5 to 5 nM. With `CC(C)Oc1ccc(-c2nc(-c3cccc4c3CC[C@H]4NC(=O)N3CC[C@H](N(C)C)C3)no2)cc1C#N` [Compound 243] the EC50 was 0.5 to 5 nM. `CC(C)Oc1ccc(-c2nc(-c3cccc4c3CC[C@@H]4NC(=O)N3CC[C@@H](N(C)C)C3)no2)cc1C#N` [Compound 244] gave an EC50 of 0.5 to 5 nM. `CC(C)Oc1ccc(-c2nc(-c3cccc4c3CC[C@@H]4NC(=O)N3CC[C@H](N(C)C)C3)no2)cc1C#N` [Compound 245] showed an EC50 of 0.5 to 5 nM. `CC(C)Oc1ccc(-c2nc(-c3cccc4c3CC[C@H]4NC(=O)N3CCC(N(C)C)CC3)no2)cc1C#N` [Compound 246] gave an EC50 of over 5 nM. `CC(C)Oc1ccc(-c2nc(-c3cccc4c3CC[C@@H]4NC(=O)N3CCC(N(C)C)CC3)no2)cc1C#N` [Compound 247] was tested, and the EC50 was 0.5 to 5 nM. `CC(C)Oc1ccc(-c2nc(-c3cccc4c3CC[C@H]4NS(N)(=O)=O)no2)cc1C#N` [Compound 248, (R)-N-(4-(5-(3 cyano-4-isopropoxyphenyl)-1,2,4-oxadiazol-3-yl)-2,3-dihydro-1H-inden-1-yl)sulfamide] was tested, and the EC50 was under 0.05 nM. Molecule `CC(C)Oc1ccc(-c2nc(-c3cccc4c3CC[C@@H]4NS(N)(=O)=O)no2)cc1C#N` [Compound 249] has an EC50 of under 0.05 nM. Work on `CC(C)Oc1ccc(-c2nc(-c3cccc4c3CC[C@@H]4NC(=N)N)no2)cc1C#N` [Compound 250] yielded an EC50 of 0.05 to 0.5 nM. In the case of `CC(C)Oc1ccc(-c2nc(-c3cccc4c3CC[C@H]4N[C@H](C)c3ccccc3)no2)cc1C#N` [Compound 251], the EC50 is reported as over 5 nM. `CC(C)Oc1ccc(-c2nc(-c3cccc4c3CC[C@H]4N)no2)cc1S(C)(=O)=O` [Compound 252] was tested, and the EC50 was 0.5 to 5 nM.
